This passage reports Ki results from patent publication US7109354B2, “Thiophene amidines, compositions thereof, and methods of treating complement-mediated diseases and conditions” (3-Dimensional Pharmaceuticals, Inc., priority 2002, dated 2006).

Where “and” joins values, the source holds several entries; their conditions need not be identical. Equal entries are not always repeated. Structures can show the parent of a compound that is named as a salt.

The target in the assay is T1, Activated human C1s (Homo sapiens, UniProt P09871).
T1 construct: purchased Calbiochem (La Jolla, Calif.)
T1 sequence (P09871 438-688 limits assumed): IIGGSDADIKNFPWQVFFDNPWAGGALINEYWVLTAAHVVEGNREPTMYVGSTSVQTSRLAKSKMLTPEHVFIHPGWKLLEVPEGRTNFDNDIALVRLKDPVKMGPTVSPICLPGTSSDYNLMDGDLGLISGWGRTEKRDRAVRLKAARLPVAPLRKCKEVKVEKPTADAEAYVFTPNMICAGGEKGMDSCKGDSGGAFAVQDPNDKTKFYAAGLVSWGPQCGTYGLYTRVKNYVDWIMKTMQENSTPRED
T1 sequence (P09871 16-437 partner limits assumed): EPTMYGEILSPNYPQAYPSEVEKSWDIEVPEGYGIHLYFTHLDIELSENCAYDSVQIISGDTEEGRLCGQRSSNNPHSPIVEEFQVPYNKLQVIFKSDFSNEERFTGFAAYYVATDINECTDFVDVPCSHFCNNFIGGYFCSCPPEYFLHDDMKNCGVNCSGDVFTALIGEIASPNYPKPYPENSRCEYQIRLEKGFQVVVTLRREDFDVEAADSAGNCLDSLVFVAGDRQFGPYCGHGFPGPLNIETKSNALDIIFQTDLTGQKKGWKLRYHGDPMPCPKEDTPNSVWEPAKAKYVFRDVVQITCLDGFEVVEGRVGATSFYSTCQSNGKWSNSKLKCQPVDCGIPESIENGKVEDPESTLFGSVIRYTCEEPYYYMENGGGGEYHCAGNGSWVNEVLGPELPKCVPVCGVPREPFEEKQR
Nature of the assay: In vitro inhibition of C1s (Ki determination, C1s-catalyzed hydrolysis of Z-Gly-Arg-S-Bzl, DTNB readout). Type of assay: biochemical. The conditions noted are these: substrate Z-Gly-Arg-S-Bzl 45 μM, DTNB 200 μM, C1s 2.3 nM, pH 7.5, 37° C., absorbance at 405 nm. The protocol:
Reagents: All buffer salts were obtained from Sigma Chemical Company (St. Louis, Mo.), and were of the highest purity available. DTNB was purchased from Pierce (Rockford, Ill.). Z-Gly-Arg-S-Bzl was purchased from Enzyme Systems Products (Livermore, Calif.). Activated human C1s was purchased from Calbiochem (La Jolla, Calif.).
Test compounds are prepared as a 10 μM solution in DMSO. Dilutions are prepared in DMSO yielding 7 final concentrations encompassing a 700-fold concentration range.
Reactions were initiated by the addition of a 10 μL aliquot of the enzyme, and the absorbance increase at 405 nm is continuously recorded for 15 minutes in a Molecular Devices plate reader. Final DMSO concentration was 4.3%. […] The ratio of the velocity (rate of change in absorbance as a function of time) for a sample containing no test compound is divided by the velocity of a sample containing test compound, and is plotted as a function of test compound concentration. The data are fit to a linear regression, and the value of the slope of the line calculated. The inverse of the slope is the experimentally determined Ki value.
As for `CSc1sc(C(=N)N)cc1S(=O)(=O)c1cccc(-c2cc(-c3ccccc3)ccc2O)c1` [Example 1, 4-(4′-Hydroxy-[1,1′;3′,1′]terphenyl-3′-sulfonyl)-5-methylsulfanyl-thiophene-2-carboxamidine trifluoroacetate], the inhibition constant Ki was in the range of 6 to 23 nM.

As for `CSc1sc(C(=N)N)cc1S(=O)(=O)c1cccc(-c2cccc(-c3ccccc3)c2O)c1` [Example 2], the inhibition constant (Ki) lay within 6 to 23 nM.

In the case of `CSc1sc(C(=N)N)cc1S(=O)(=O)c1cccc(-c2cccc(C(=O)OC(C)C)c2C)c1` [Example 3, 3′-(5-Carbamimidoyl-2-methylsulfanyl-thiophene-3-sulfonyl)-2-methyl-biphenyl-3-carboxylic acid isopropyl ester trifluoroacetate], the inhibitory constant (Ki) lay in the range of 6 to 23 nM.

In turn, `CSc1sc(C(=N)N)cc1S(=O)(=O)c1cccc(-c2c(C)cccc2C(=O)O)c1` [Example 4, 3′-(5-Carbamimidoyl-2-methylsulfanyl-thiophene-3-sulfonyl)-6-methyl-biphenyl-2-carboxylic acid trifluoroacetate] returned a Ki of 6 to 23 nM.

For `CSc1sc(C(=N)N)cc1S(=O)(=O)c1cccc(-c2c(C)cccc2CO)c1` [Example 5, 4-(6′-Hydroxymethyl-2′-methyl-biphenyl-3-sulfonyl)-5-methylsulfanyl-thiophene-2-carboxamidine], the Ki is 6 to 23 nM.

As to `CSc1sc(C(=N)N)cc1S(=O)(=O)c1cccc(-c2cccc(C=O)c2C)c1` [Example 6, 4-(3′-formyl-2′-methyl-biphenyl-3-sulfonyl)-5-methylsulfanyl-thiophene-2-carboxamidine trifluoroacetate], the inhibition constant (Ki) lay in the range of 6 to 23 nM.

In turn, `CSc1sc(C(=N)N)cc1S(=O)(=O)c1cccc(-c2cc(CO)ccc2C)c1` [Example 7, 4-(5′-Hydroxymethyl-2′-methyl-biphenyl-3-sulfonyl)-5-methylsulfanyl-thiophene-2-carboxamidine trifluoroacetate] came in with an inhibition constant Ki of 6 to 23 nM.

On to `CSc1sc(C(=N)N)cc1S(=O)(=O)c1cccc(-c2cc(C=O)ccc2C)c1` [Example 8, 4-(5′-Formyl-2′-methyl-biphenyl-3-sulfonyl)-5-methylsulfanyl-thiophene-2-carboxamidine trifluoroacetate], for which the Ki lay within 6 to 23 nM.

The molecule `CSc1sc(C(=N)N)cc1S(=O)(=O)c1cccc(-c2cnccc2C)c1` [Example 9, 4-[3-(4-Methyl-pyridin-3-yl)-benzenesulfonyl]-5-methylsulfanyl-thiophene-2-carboxamidine trifluoroacetate] showed an inhibition constant Ki of 6 to 23 nM.

Regarding `CSc1sc(C(=N)N)cc1S(=O)(=O)c1cccc(-c2cccnc2Cl)c1` [Example 10, 4-[3-(2-Chloro-pyridin-3-yl)-benzenesulfonyl]-5-methylsulfanyl-thiophene-2-carboxamidine; bis-trifluoroacetate], the Ki is 6 to 23 nM.

Turning to `CSc1sc(C(=N)N)cc1S(=O)(=O)c1cccc(-c2ncccc2C)c1` [Example 11, 4-[3-(3-Methyl-pyridin-2-yl)-benzenesulfonyl]-5-methylsulfanyl-thiophene-2-carboxamidine bis-trifluoroacetate], the inhibitory constant (Ki) is 6 to 23 nM and 23 nM.

`C=CCOc1cc(Br)cc(S(=O)(=O)c2cc(C(=N)N)sc2SC)c1` [Example 12, 4-(3-Allyloxy-5-bromo-benzenesulfonyl)-5-methylsulfanyl-thiophene-2-carboxamidine hydrochloride] came in with a Ki of 6 to 23 nM.

The molecule `COc1cc(Br)cc(S(=O)(=O)c2cc(C(=N)N)sc2SC)c1` [Example 13, 4-(3-Bromo-5-methoxy-benzenesulfonyl)-5-methylsulfanyl-thiophene-2-carboxamidine hydrochloride] showed an inhibition constant Ki of 6 to 23 nM.

Take `COc1cc(-c2ccccc2)cc(S(=O)(=O)c2cc(C(=N)N)sc2SC)c1` [Example 15, 4-(5-Methoxy-biphenyl-3-sulfonyl)-5-methylsulfanyl-thiophene-2-carboxamidine hydrochloride]: the inhibition constant Ki fell in the range of 6 to 23 nM.

In the case of `C=CCOc1cc(-c2ccccc2)cc(S(=O)(=O)c2cc(C(=N)N)sc2SC)c1` [Example 16, 4-(5-Allyloxy-biphenyl-3-sulfonyl)-5-methylsulfanyl-thiophene-2-carboxamidine], the Ki was 6 to 23 nM.

Molecule `CSc1sc(C(=N)N)cc1S(=O)(=O)c1cc(OCc2ccccc2)cc(-c2ccccc2)c1` [Example 17, 4-(5-Benzyloxy-biphenyl-3-sulfonyl)-5-methylsulfanyl-thiophene-2-carboxamidine hydrochloride] registered an inhibition constant (Ki) of 6 to 23 nM.

`CSc1sc(C(=N)N)cc1S(=O)(=O)c1cc(O)cc(-c2ccccc2Cl)c1` [Example 18, 4-(2′-Chloro-5-hydroxy-biphenyl-3-sulfonyl)-5-methylsulfanyl-thiophene-2-carboxamidine trifluoroacetate] returned a Ki of 6 to 23 nM.

In turn, `COc1cc(-c2ccccc2Cl)cc(S(=O)(=O)c2cc(C(=N)N)sc2SC)c1` [Example 19, 4-(2′-Chloro-5-methoxy-biphenyl-3-sulfonyl)-5-methylsulfanyl-thiophene-2-carboxamidine trifluoroacetate] displayed a Ki of 6 to 23 nM.

Turning to `N=C(N)c1cc(S(=O)(=O)c2cccc(-c3cccc(C=O)c3)c2)c(Br)s1` [Example 20, 5-Bromo-4-(3′-formyl-biphenyl-3-sulfonyl)-thiophene-2-carboxamidine trifluoroacetate], the Ki was 6 to 23 nM.

As to `Cc1ccccc1-c1cccc(S(=O)(=O)c2cc(C(=N)N)sc2Br)c1` [Example 24, 5-Bromo-4-(2′-methyl-biphenyl-3-sulfonyl)-thiophene-2-carboxamidine trifluoroacetate], the Ki was 6 to 23 nM.

Take `CSc1sc(C(=N)N)cc1S(=O)(=O)c1cccc(-c2c(C)cccc2N)c1` [Example 25, 4-(2′-Amino-6′-methyl-biphenyl-3-sulfonyl)-5-methylsulfanyl-thiophene-2-carboxamidine trifluoroacetate]: the Ki was 6 to 23 nM.

Molecule `CSc1sc(C(=N)N)cc1S(=O)(=O)c1cccc(-c2ccc(O)c(C=O)c2)c1` [Example 26, 4-(3′-Formyl-4′-hydroxy-biphenyl-3-sulfonyl)-5-methylsulfanyl-thiophene-2-carboxamidine trifluoroacetate] gave a Ki of 6 to 23 nM.

As for `CSc1sc(C(=N)N)cc1S(=O)(=O)c1cccc(-c2cccc(C(O)C(F)(F)F)c2)c1` (centres unmarked) [Example 28, 5-Methylsulfanyl-4-[3′-(2,2,2-trifluoro-1-hydroxy-ethyl)-biphenyl-3-sulfonyl]-thiophene-2-carboxamidine trifluoroacetate], the Ki lay in the range of 6 to 23 nM.

For the molecule `CSc1sc(C(=N)N)cc1S(=O)(=O)c1cccc(-c2cccc(C(=O)C(F)(F)F)c2)c1` [Example 29, 5-Methylsulfanyl-4-[3′-(2,2,2-trifluoro-acetyl)-biphenyl-3-sulfonyl]-thiophene-2-carboxamidine trifluoroacetate], the Ki fell in the range of 6 to 23 nM.

`CSc1sc(C(=N)N)cc1S(=O)(=O)c1cccc(-c2cc3[nH]cnc3cc2C)c1` [Example 30, 4-[3-(6-Methyl-3H-benzoimidazol-5-yl)-benzenesulfonyl]-5-methylsulfanyl-thiophene-2-carboxamidine bis-trifluoroacetate]: the inhibition constant Ki is 6 to 23 nM.

`CSc1sc(C(=N)N)cc1S(=O)(=O)c1cccc(-c2ccccc2C(C)O)c1` (centres unmarked) [Example 32, 4-[2′-(1-Hydroxy-ethyl)-biphenyl-3-sulfonyl]-5-methylsulfanyl-thiophene-2-carboxamidine trifluoroacetate] showed a Ki of 6 to 23 nM.

Take `CSc1sc(C(=N)N)cc1S(=O)(=O)c1cccc(-c2ccc(C(C)O)cc2)c1` (centres unmarked) [Example 33, 4-[4′-(1-Hydroxy-ethyl)-biphenyl-3-sulfonyl]-5-methylsulfanyl-thiophene-2-carboxamidine Trifluoroacetate]: the Ki was 6 to 23 nM.

`CSc1sc(C(=N)N)cc1S(=O)(=O)c1cccc(-c2ccccc2O)c1` [Example 34, 4-(2′-Hydroxy-biphenyl-3-sulfonyl)-5-methylsulfanyl-thiophene-2-carboxamidine trifluoroacetate] yielded a Ki of 6 to 23 nM.

As for `CSc1sc(C(=N)N)cc1S(=O)(=O)c1cccc(-c2cccc(O)c2)c1` [Example 35, 4-(3′-Hydroxy-biphenyl-3-sulfonyl)-5-methylsulfanyl-thiophene-2-carboxamidine trifluoroacetate], the inhibition constant Ki was 6 to 23 nM.

One may read the Ki as the dissociation constant of the complex between target and ligand, obtained from inhibition or displacement.
